The text below walks through data of US12459951B2, “Compounds that interact with RAS superfamily proteins for treatment of cancers, inflammatory diseases, rasopathies, and fibrotic disease” (SHY Therapeutics, LLC, priority 2022, dated 2025).

For test [1], the system named is TNF-alpha. As to the kind of experiment: TNF-alpha Quantification Assay (ELISA), LPS-stimulated RAW 264.7. Format: cell-based. The following applies: Mus musculus, RAW264.7; at 10 μM; read-out: TNFα: % inh.
In test [2] the test system is Erk1/2 phosphorylation. The test can be described thus: Erk1/2 Phosphorylation Assay (western blot), Panc-1. Format: cell-based, human. The note with it: at 10 μM, * = activation. In a few lines: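 Phospho-Erk1/2 (Thr202/Tyr204) was detected by western blot in lysates of Panc-1 cells (KRas G12D). These had 6 h, 37° C exposure to 10 μM compound or a dilution series for IC50, in 0.3% DMSO. Cells were either starved overnight in 0.5% FBS with a 15-min 1.5 ng/ml EGF pulse, or kept unstimulated in 10% FBS.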
For orientation: Immunoblotting shows a protein as a band on a membrane.

Test [3] deals with MiaPaca-2 (expressing KRAS G12C mutant). The test can be described thus: Proliferation Assay (Cell Viability Assay). The format is cell-based. The note with it: Homo sapiens, MIA PaCa-2. Summed up:
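After 2–4 days' exposure at 37 °C, 5% CO2 to a single 10 μM final concentration or a dilution series (IC50), percent proliferation inhibition was derived from CellTiter 96 Aqueous One viability readings. The medium contained 0.3% DMSO and 10% FBS. KRAS G12C MiaPaca-2 cells were plated at 2000–5000/well the day before.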

[4] abbreviates: read-out: Proliferation in MiaPaca-2: IC50.

Read-outs that look alike come from different tables or passages of the source.

Take `COCC1CCN(c2nc(-c3nccn3C)nn3cc(-c4ccn(C(C)C)n4)c(C)c23)C1` (racemic) [Compound 2, rac 6-(1-Isopropyl-1H-pyrazol-3-yl)-4-(3-(methoxymethyl)pyrrolidin-1-yl)-5-methyl-2-(1-methyl-1H-imidazol-2-yl)pyrrolo[2,1-f][1,2,4]triazine]: the inhibition at 10 µM in test [1] is 25 to 49%. Moreover, in test [2], the “% inh of Erk1/2 phosphorylation in Panc-1” value (from here on “% inh”) is on record as “B (26-49% inhibition)”. Also, the IC50 in test [3] (setting [4]) is more than 1000 nM.

In the case of `COc1ncc(Nc2nc(-c3nccn3C)nn3cc(-c4ccn(C(C)C)n4)c(C)c23)cn1` [Compound 80, 6-(1-Isopropyl-1H-pyrazol-3-yl)-N-(2-methoxypyrimidin-5-yl)-5-methyl-2-(1-methyl-1H-imidazol-2-yl)pyrrolo[2,1-f][1,2,4]triazin-4-amine], the inhibition at 10 µM in test [1] stood at 0%. In test [2], the “% inh” value was “D* (85-100% activation)”. Also, the IC50 in test [3] (setting [4]) was more than 1000 nM.

For the molecule `Cc1c(-c2ccn(C(C)C)n2)cn2nc(-c3nccn3C)nc(Nc3cc4n(n3)CCO4)c12` [Compound 91, N-(6-(1-Isopropyl-1H-pyrazol-3-yl)-5-methyl-2-(1-methyl-1H-imidazol-2-yl)pyrrolo[2,1-f][1,2,4]triazin-4-yl)-2,3-dihydropyrazolo[5,1-b]oxazol-6-amine], the inhibition at 10 µM in test [1] was 1 to 24%. The “% inh” value in test [2] was “D* (85-100% activation)”. In addition, the IC50 was 10 to 50 nM in test [3] (Proliferation assay, MiaPaca-2, read-out: MiaPaca-2 IC50 (nM) Pancreatic) and less than 150 nM in test [3] (setting [4]).

As for `CCc1nc(Nc2nc(-c3nccn3C)nn3cc(-c4ccn(C(C)C)n4)c(C)c23)nn1C` [Compound 76, N-(5-Ethyl-1-methyl-1H-1,2,4-triazol-3-yl)-6-(1-isopropyl-1H-pyrazol-3-yl)-5-methyl-2-(1-methyl-1H-imidazol-2-yl)pyrrolo[2,1-f][1,2,4]triazin-4-amine], the inhibition at 10 µM in test [1] is 25 to 49%. Also, in test [2], the “% inh” value is reported as 0 (0% inhibition). Further, the IC50 in test [3] (setting [4]) is less than 150 nM.

Consider `Cc1c(-c2ccn(C(C)C)n2)cn2nc(-c3nccn3C)nc(Nc3nnc(C4CC4)[nH]3)c12` [Compound 81, N-(5-Cyclopropyl-4H-1,2,4-triazol-3-yl)-6-(1-isopropyl-1H-pyrazol-3-yl)-5-methyl-2-(1-methyl-1H-imidazol-2-yl)pyrrolo[2,1-f][1,2,4]triazin-4-amine], for which, in test [1], the inhibition at 10 µM lay in the range of 50 to 74%. In test [2], the “% inh” value was 0 (0% inhibition). Besides, in test [3] (setting [4]), the IC50 lay in the range of 150 to 500 nM.

Consider `COC1CCCN(c2nc(-c3nccn3C)nn3cc(-c4ccn(C(C)C)n4)c(C)c23)C1` (racemic) [Compound 4, rac 6-(1-Isopropyl-1H-pyrazol-3-yl)-5-methyl-2-(1-methyl-1H-imidazol-2-yl)-4-(3-(oxo-γ6-methyl)piperidin-1-yl)pyrrolo[2,1-f][1,2,4]triazine], for which, in test [1], the inhibition at 10 µM was in the range of 75 to 100%. For the same molecule, the “% inh” value in test [2] was “D (85-100% inhibition)”. In addition, the IC50 in test [3] (setting [4]) is more than 1000 nM.

As to `COc1ncncc1Nc1nc(-c2nccn2C)nn2cc(-c3ccn(C(C)C)n3)c(C)c12` [Compound 88, 6-(1-Isopropyl-1H-pyrazol-3-yl)-N-(4-methoxypyrimidin-5-yl)-5-methyl-2-(1-methyl-1H-imidazol-2-yl)pyrrolo[2,1-f][1,2,4]triazin-4-amine], the inhibition at 10 µM in test [1] was in the range of 1 to 24%. Besides, in test [2], the “% inh” value was 0 (0% inhibition). For the same molecule, the IC50 in test [3] (setting [4]) was more than 1000 nM.

For `COc1cccc(-c2cn3nc(-c4nccn4C)nc(N[C@@H]4CC[C@H](OC)C4)c3c2-c2ccccc2)c1C` (racemic) [Compound 271, rac 6-(3-Methoxy-2-methylphenyl)-N-((1R,3S)-3-methoxycyclopentyl)-2-(1-methyl-1H-imidazol-2-yl)-5-phenylpyrrolo[2,1-f][1,2,4]triazin-4-amine], the inhibition at 10 µM in test [1] is 75 to 100%. Moreover, in test [2], the “% inh” value is given as “D (85-100% inhibition)”. The IC50 in test [3] (setting [4]) lay in the range of 150 to 500 nM.
